Results taken from patent US9695178B2, “6-(2-pyridyl)-7,8-dihydro-5H-pyrido[4,3-D]pyrimidine analogs as hedgehog pathway signaling inhibitors and therapeutic applications thereof” (Suzhou Yunxuan Yiyao Keji Youxian Gongsi, priority 2013, dated 2017).

Target: Smo (Homo sapiens, UniProt Q99835)
Assay: Bodipy-Cyclopamine Binding Assay (confirmation assay), Hek293-SMO cells
Details: not given

Smo, sequence (Q99835 28-787): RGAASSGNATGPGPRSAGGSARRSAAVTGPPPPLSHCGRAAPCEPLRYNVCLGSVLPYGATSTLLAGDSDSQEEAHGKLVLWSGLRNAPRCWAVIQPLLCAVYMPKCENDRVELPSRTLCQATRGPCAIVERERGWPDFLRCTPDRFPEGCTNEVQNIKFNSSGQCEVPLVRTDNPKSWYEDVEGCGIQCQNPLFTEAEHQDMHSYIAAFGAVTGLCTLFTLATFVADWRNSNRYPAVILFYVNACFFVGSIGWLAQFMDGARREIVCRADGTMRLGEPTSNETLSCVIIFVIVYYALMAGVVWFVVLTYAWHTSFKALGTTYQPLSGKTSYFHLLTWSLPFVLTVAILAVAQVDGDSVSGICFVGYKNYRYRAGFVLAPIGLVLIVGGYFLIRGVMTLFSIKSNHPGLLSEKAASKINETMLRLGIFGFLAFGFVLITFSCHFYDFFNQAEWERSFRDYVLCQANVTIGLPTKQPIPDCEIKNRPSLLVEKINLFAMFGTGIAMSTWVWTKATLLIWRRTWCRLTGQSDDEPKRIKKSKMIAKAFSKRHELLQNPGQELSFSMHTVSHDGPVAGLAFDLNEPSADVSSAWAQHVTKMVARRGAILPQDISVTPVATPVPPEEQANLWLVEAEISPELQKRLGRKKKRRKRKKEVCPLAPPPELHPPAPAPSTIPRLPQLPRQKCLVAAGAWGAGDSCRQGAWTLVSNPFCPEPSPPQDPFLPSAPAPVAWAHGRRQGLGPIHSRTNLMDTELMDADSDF

Compound	IC50
Cc1cnc(-c2cc(N3CCc4nc(NC(=O)C(F)(F)F)sc4C3)ncc2Cl)c(C)c1 [Compound A-38, N-(5-(5′-chloro-3,5-dimethyl-2,4′-bipyridin-2′-yl)-4,5,6,7-tetrahydro-thiazolo-[5,4-c]pyridin-2-yl)-2,2,2-trifluoro-acetamide]	> 1000 nM
Cc1cnc(-c2cc(N3CCc4nc(N5CCCC5)sc4C3)ncc2Cl)c(C)c1 [Compound A-34, 5-(5′-chloro-3,5-dimethyl-2,4′-bipyridin-2′-yl)-2-(pyrrolidin-1-yl)-4,5,6,7-tetrahydro-thiazolo-[5,4-c]pyridine]	371 nM
Cc1cnc(-c2cc(N3CCc4nc(NS(C)(=O)=O)sc4C3)ncc2Cl)c(C)c1 [Compound A-45, N-(5-(5′-chloro-3,5-dimethyl-2,4′-bipyridin-2′-yl)-4,5,6,7-tetrahydro-thiazolo-[5,4-c]pyridin-2-yl)methane-sulfon-amide]	> 1000 nM
Cc1cnc(-c2cc(N3CCc4nc(N5CCC(O)C5)ncc4C3=O)ncc2Cl)c(C)c1 (stereo not drawn) [Compound A-105, 6-(5′-chloro-3,5-dimethyl-2,4′-bipyridin-2′-yl)-2-(3-hydroxy-pyrrolidin-1-yl)-7,8-dihydro-pyrido[4,3-d]pyrimidin-5(6H)-one]	272 nM
Cc1cnc(-c2cc(N3CCc4nc(-n5cccn5)sc4C3)ncc2Cl)c(C)c1 [Compound A-36, 5-(5′-chloro-3,5-dimethyl-2,4′-bipyridin-2′-yl)-2-(1H-pyrazol-1-yl)-4,5,6,7-tetrahydro-thiazolo-[5,4-c]pyridine]	565 nM
Cc1cnc(-c2cc(N3CCn4cc(C(=O)O)nc4C3)ncc2Cl)c(C)c1 [Compound A-2, 7-(5′-chloro-3,5-dimethyl-2,4′-bipyridin-2′-yl)-5,6,7,8-tetrahydro-imidazo-[1,2-a]pyrazine-2-carboxylic acid]	> 10000 nM
Cc1cnc(-c2cc(N3CCc4nc(S(C)(=O)=O)ncc4C3=O)ncc2Cl)c(C)c1 [Compound A-98, 6-(5′-chloro-3,5-dimethyl-2,4′-bipyridin-2′-yl)-2-(methyl-sulfonyl)-7,8-dihydro-pyrido[4,3-d]pyrimidin-5(6H)-one]	835 nM
Cc1cnc(-c2cc(N3CCn4cc(C(=O)Oc5ccccc5)nc4C3)ncc2Cl)c(C)c1 [Compound A-18, phenyl 7-(5′-chloro-3,5-dimethyl-2,4′-bipyridin-2′-yl)-5,6,7,8-tetrahydro-imidazo-[1,2-a]pyrazine-2-carboxylate]	> 1000 nM
Clc1cnc(N2CCc3nc(NC4CC4)ncc3C2)cc1-c1cccnc1 [Compound A-118, 6-(5′-chloro-3,4′-bipyridin-2′-yl)-N-cyclopropyl-5,6,7,8-tetrahydro-pyrido-[4,3-d]pyrimidin-2-amine]	> 1000 nM
CCC(=O)Nc1cn2c(n1)CN(c1cc(-c3ncc(C)cc3C)c(Cl)cn1)CC2 [Compound A-13, N-(7-(5′-chloro-3,5-dimethyl-2,4′-bipyridin-2′-yl)-5,6,7,8-tetrahydroimidazo[1,2-a]pyrazin-2-yl)propionamide]	> 1000 nM
Cc1cnc(-c2cc(N3CCn4cc(CN5CCOCC5)nc4C3)ncc2Cl)c(C)c1 [Compound A-11, 4-((7-(5′-chloro-3,5-dimethyl-2,4′-bipyridin-2′-yl)-5,6,7,8-tetrahydroimidazo[1,2-a]pyrazin-2-yl)methyl)morpholine]	676 nM
CC(=O)Nc1nc2c(s1)CN(c1cc(-c3ncc(C)cc3C)c(Cl)cn1)CC2 [Compound A-23, N-(5-(5′-chloro-3,5-dimethyl-[2,4′-bipyridin]-2′-yl)-4,5,6,7-tetrahydrothiazolo[5,4-c]pyridin-2-yl)acetamide]	363 nM
Cc1cnc(-c2cc(N3CCn4cc(C(=O)N5CCC(O)CC5)nc4C3)ncc2Cl)c(C)c1 [Compound A-4, (7-(5′-chloro-3,5-dimethyl-2,4′-bipyridin-2′-yl)-5,6,7,8-tetrahydro-imidazo-[1,2-a]pyrazin-2-yl)(4-hydroxy-piperidin-1-yl)methanone]	639 nM
Cc1cnc(-c2cc(N3CCc4nc(Nc5ccccc5)sc4C3)ncc2Cl)c(C)c1 [Compound A-48, 5-(5′-chloro-3,5-dimethyl-2,4′-bipyridin-2′-yl)-N-phenyl-4,5,6,7-tetrahydro-thiazolo-[5,4-c]pyridin-2-amine]	330 nM

Now from value to compound:

IC50	Compound
260 nM	CCNc1nc2c(s1)CN(c1cc(-c3ncc(C)cc3C)c(Cl)cn1)CC2 [Compound A-35, 5-(5′-chloro-3,5-dimethyl-2,4′-bipyridin-2′-yl)-N-ethyl-4,5,6,7-tetrahydro-thiazolo-[5,4-c]pyridin-2-amine]
207 nM	CCOc1ncc2c(n1)CCN(c1cc(-c3ncc(C)cc3C)c(Cl)cn1)C2 [Compound A-67, 6-(5′-chloro-3,5-dimethyl-2,4′-bipyridin-2′-yl)-2-ethoxy-5,6,7,8-tetrahydro-pyrido-[4,3-d]pyrim-idine]
201 nM	Cc1cnc(-c2cc(N3CCc4nc(NC(=O)NC(C)C)sc4C3)ncc2Cl)c(C)c1 [Compound A-43, 1-(5-(5′-chloro-3,5-dimethyl-2,4′-bipyridin-2′-yl)-4,5,6,7-tetrahydro-thiazolo-[5,4-c]pyridin-2-yl)-3-isopropylurea]
169 nM	Cc1cnc(-c2cc(N3CCc4nc(N5CCOCC5)sc4C3)ncc2Cl)c(C)c1 [Compound A-29, 4-(5-(5′-chloro-3,5-dimethyl-[2,4′-bipyridin]-2′-yl)-4,5,6,7-tetrahydrothiazolo[5,4-c]pyridin-2-yl)morpholine]
169 nM	CSc1ncc2c(n1)CCN(c1cc(-c3ncc(C)cc3C)c(Cl)cn1)C2=O [Compound A-96, 6-(5′-chloro-3,5-dimethyl-2,4′-bipyridin-2′-yl)-2-(methylthio)-7,8-dihydro-pyrido[4,3-d]pyrimidin-5(6H)-one]
105 nM	Cc1cnc(-c2cc(N3Cc4cnc(N5CC(C)NC(C)C5)nc4C(C)(C)C3)ncc2Cl)c(C)c1 (stereo not drawn) [Compound A-82, 6-(5′-chloro-3,5-dimethyl-2,4′-bipyridin-2′-yl)-2-(3,5-dimethyl-piperazin-1-yl)-8,8-dimethyl-5,6,7,8-tetrahydro-pyrido-[4,3-d]pyrimidine]
101 nM	CCC(=O)Nc1nc2c(s1)CN(c1cc(-c3ncc(C)cc3C)c(Cl)cn1)CC2 [Compound A-25, N-(5-(5′-chloro-3,5-dimethyl-2,4′-bipyridin-2′-yl)-4,5,6,7-tetrahydro-thiazolo-[5,4-c]pyridin-2-yl)propion-amide]
85.3 nM	Cc1cnc(-c2cc(N3CCc4nc(NCC5CC5)ncc4C3)ncc2Cl)c(C)c1 [Compound A-65, 6-(5′-chloro-3,5-dimethyl-2,4′-bipyridin-2′-yl)-N-(cyclopropyl-meth-yl)-5,6,7,8-tetrahydro-pyrido-[4,3-d]pyrimidin-2-amine]
82.9 nM	Cc1cccnc1-c1cc(N2CCc3nc(NC4CC4)ncc3C2)ncc1Cl [Compound A-111, 6-(5′-chloro-3-methyl-2,4′-bipyridin-2′-yl)-N-cyclopropyl-5,6,7,8-tetrahydropyrido[4,3-d]pyrimidin-2-amine]
77.1 nM	Cc1cnc(-c2cc(N3CCc4nc(OC5CCCC5)ncc4C3)ncc2Cl)c(C)c1 [Compound A-71, 6-(5′-chloro-3,5-dimethyl-2,4′-bipyridin-2′-yl)-2-(cyclo-pentyloxy)-5,6,7,8-tetrahydro-pyrido-[4,3-d]pyrim-idine]
76 nM	Cc1cnc(-c2cc(N3CCc4nc(NCC5CC5)ncc4C3=O)ncc2Cl)c(C)c1 [Compound A-104, 6-(5′-chloro-3,5-dimethyl-2,4′-bipyridin-2′-yl)-2-(cyclopro-pylmeth-ylamino)-7,8-dihydro-pyrido[4,3-d]pyrimidin-5(6H)-one]
69.7 nM	Cc1cnc(-c2cc(N3CCc4nc(N5CC(C)NC(C)C5)sc4C3)ncc2Cl)c(C)c1 (stereo not drawn) [Compound A-30, 5-(5′-chloro-3,5-dimethyl-2,4′-bipyridin-2′-yl)-2-(3,5-dimethyl-piperazin-1-yl)-4,5,6,7-tetrahydro-thiazolo-[5,4-c]pyridine]
59.8 nM	Cc1cnc(-c2cc(N3CCc4nc(N(C)S(C)(=O)=O)ncc4C3)ncc2Cl)c(C)c1 [Compound A-58, N-(6-(5′-chloro-3,5-dimethyl-2,4′-bipyridin-2′-yl)-5,6,7,8-tetrahydro-pyrido-[4,3-d]pyrim-idin-2-yl)-N-methylmethane-sulfonamide]
58.3 nM	Cc1cnc(-c2cc(N3CCc4nc(NC(=O)C(C)C)sc4C3)ncc2Cl)c(C)c1 [Compound A-24, N-(5-(5′-chloro-3,5-dimethyl-2,4′-bipyridin-2′-yl)-4,5,6,7-tetrahydro-thiazolo-[5,4-c]pyridin-2-yl)isobutyr-amide]
28.1 nM	Cc1cnc(-c2cc(N3Cc4cnc(NC5CC5)nc4C(C)(C)C3)ncc2Cl)c(C)c1 [Compound A-80, 6-(5′-chloro-3,5-dimethyl-2,4′-bipyridin-2′-yl)-N-cyclopropyl-8,8-dimethyl-5,6,7,8-tetrahydro-pyrido-[4,3-d]pyrimidin-2-amine]
24.8 nM	Cc1cnc(-c2cc(N3CCc4nc(NC5CC5)ncc4C3=O)ncc2Cl)c(C)c1 [Compound A99, 6-(5′-chloro-3,5-dimethyl-2,4′-bipyridin-2′-yl)-2-(cyclopropyl-amino)-7,8-dihydro-pyrido[4,3-d]pyrimidin-5(6H)-one]
22.9 nM	Cc1cnc(-c2cc(N3CCc4nc(N(C)CCO)ncc4C3)ncc2Cl)c(C)c1 [Compound A-54, 2-((6-(5′-chloro-3,5-dimethyl-2,4′-bipyridin-2′-yl)-5,6,7,8-tetrahydro-pyrido-[4,3-d]pyrimidin-2-yl)(methyl)-amino)ethanol]
11.1 nM	Cc1cnc(-c2cc(N3CCc4nc(N5CC(C)NC(C)C5)ncc4C3)ncc2Cl)c(C)c1 (stereo not drawn) [Compound A-57, 6-(5′-chloro-3,5-dimethyl-2,4′-bipyridin-2′-yl)-2-(3,5-dimethyl-piperazin-1-yl)-5,6,7,8-tetrahydro-pyrido-[4,3-d]pyrimidine]

Same assay, conditions: Smo IC50 (nM), confirmation assay; competition with 100 nM bodipy-cyclopamine, Hek293-SMO cells

IC50	Compound
> 1000 nM	Cc1cnc(-c2cc(N3CCn4cc(CO)nc4C3)ncc2Cl)c(C)c1 [Compound A-10, (7-(5′-chloro-3,5-dimethyl-2,4′-bipyridin-2′-yl)-5,6,7,8-tetrahydro-imidazo-[1,2-a]pyrazin-2-yl)methanol]
